Reference: PMC4268243 (Nuclear medicine and biology, 2014)

Columns and labels:
[1] = test system: SKOV3 estrogen-positive ovarian adenocarcinoma cells; experiment: Amino acid uptake and inhibition in SKOV3 cells; type: cell-based, human; conditions: SKOV3, 30 minutes incubation
[2] = test system: U87 glioblastoma cells; experiment: Amino acid uptake and inhibition in U87 cells; type: cell-based, human; conditions: U87, 30 minutes incubation
[3] = test system: SKOV3 tumor xenograft; experiment: Biodistribution in SKOV3 tumor-bearing SCID mice; type: in vivo; conditions: listed as (S)-[^18F]FAMP 1
[4] = test system: human A549, DU145, U87, MDA MB468 and SKOV3 tumor cells; experiment: Amino acid uptake and inhibition, summary over the five tumor cell lines; type: cell-based
[5] = test system: DU145 androgen-independent prostate carcinoma cells; experiment: Amino acid uptake and inhibition in DU145 cells; type: cell-based, human; conditions: DU145, 30 minutes incubation
[6] = test system: MDA MB468 estrogen-independent breast carcinoma cells; experiment: Amino acid uptake and inhibition in MDA MB468 cells; type: cell-based, human; conditions: for Cell uptake: MDA MB468, 30 minutes incubation
[7] = test system: DU145 tumor xenograft; experiment: Biodistribution in DU145 tumor-bearing SCID mice; type: in vivo; conditions: listed as (S)-[^18F]FAMP 1

Structure (SMILES): CC(N)(C[18F])C(=O)O [(S)-[^18F]1] [2-amino-3-[^18F]fluoro-2-methylpropanoic acid]
- Cell uptake ([1]; 10 mM BCH): 1.7±0.1 % ID/5×10^5 cells
- Cell uptake ([1]; 10 mM MeAIB): 2.9±0.2 % ID/5×10^5 cells
- Cell uptake ([1]; Control (no inhibitor)): 3.9±0.2 % ID/5×10^5 cells
- Cell uptake ([2]; 10 mM BCH): 0.8±0.1 % ID/5×10^5 cells
- Cell uptake ([2]; 10 mM MeAIB): 1.0±0.04 % ID/5×10^5 cells
- Cell uptake ([2]; Control (no inhibitor)): 1.5±0.1 % ID/5×10^5 cells
- uptake in blood ([3]; 15 min post injection): 3.5±0.8 %ID/g
- uptake in bone ([3]; 15 min post injection): 2.2±0.7 %ID/g
- uptake in brain ([3]; 15 min post injection): 0.4±0.1 %ID/g
- uptake in heart ([3]; 15 min post injection): 2.8±0.8 %ID/g
- uptake in kidney ([3]; 15 min post injection): 31±6.8 %ID/g
- uptake in liver ([3]; 15 min post injection): 3.6±1.0 %ID/g
- uptake in lung ([3]; 15 min post injection): 4.8±1.3 %ID/g
- uptake in muscle ([3]; 15 min post injection): 2.8±0.9 %ID/g
- uptake in pancreas ([3]; 15 min post injection): 44±15 %ID/g
- uptake in spleen ([3]; 15 min post injection): 9.8±4.3 %ID/g
- uptake in tumor ([3]; 15 min post injection): 6.2±4.1 %ID/g
- uptake in blood ([3]; 30 min post injection): 3.1±0.7 %ID/g
- uptake in bone ([3]; 30 min post injection): 2.2±0.4 %ID/g
- uptake in brain ([3]; 30 min post injection): 0.5±0.1 %ID/g
- uptake in heart ([3]; 30 min post injection): 2.8±0.5 %ID/g
- uptake in kidney ([3]; 30 min post injection): 22±4.9 %ID/g
- uptake in liver ([3]; 30 min post injection): 3.9±0.6 %ID/g
- uptake in lung ([3]; 30 min post injection): 4.4±0.7 %ID/g
- uptake in muscle ([3]; 30 min post injection): 2.8±0.5 %ID/g
- uptake in pancreas ([3]; 30 min post injection): 40±13 %ID/g
- uptake in spleen ([3]; 30 min post injection): 8.4±2.1 %ID/g
- uptake in tumor ([3]; 30 min post injection): 7.3±3.0 %ID/g
- uptake in blood ([3]; 60 min post injection): 2.1±0.6 %ID/g
- uptake in bone ([3]; 60 min post injection): 1.7±0.6 %ID/g
- uptake in brain ([3]; 60 min post injection): 0.6±0.2 %ID/g
- uptake in heart ([3]; 60 min post injection): 2.6±0.7 %ID/g
- uptake in kidney ([3]; 60 min post injection): 15±4.8 %ID/g
- uptake in liver ([3]; 60 min post injection): 3.6±1.1 %ID/g
- uptake in lung ([3]; 60 min post injection): 3.2±1.1 %ID/g
- uptake in muscle ([3]; 60 min post injection): 2.2±0.7 %ID/g
- uptake in pancreas ([3]; 60 min post injection): 36±8.6 %ID/g
- uptake in spleen ([3]; 60 min post injection): 5.5±1.2 %ID/g
- uptake in tumor ([3]; 60 min post injection): 6.2±3.1 %ID/g
- uptake in bone ([3]; 120 min post injection): 1.6±1.1 %ID/g
- uptake in brain ([3]; 120 min post injection): 0.7±0.3 %ID/g
- uptake in heart ([3]; 120 min post injection): 2.6±1.4 %ID/g
- uptake in kidney ([3]; 120 min post injection): 11±5.0 %ID/g
- uptake in liver ([3]; 120 min post injection): 3.2±0.7 %ID/g
- uptake in lung ([3]; 120 min post injection): 2.3±0.8 %ID/g
- uptake in muscle ([3]; 120 min post injection): 1.7±0.9 %ID/g
- uptake in pancreas ([3]; 120 min post injection): 22±3.6 %ID/g
- uptake in spleen ([3]; 120 min post injection): 4.6±2.3 %ID/g
- uptake in tumor ([3]; 120 min post injection): 5.1±1.6 %ID/g
- inhibition of uptake by BCH ([4]; 10 mM BCH, relative to control, most cell lines): 36-68%
- inhibition of uptake by MeAIB ([4]; 10 mM MeAIB, relative to control, most cell lines): 10-32%
- uptake in tumor cells ([4]; 30 minutes incubation, without inhibitors, range over the cell lines): 2-5 %ID/5×10^5 cells
- amino acid transport system mediating uptake / selectivity ([4]; AAT cell inhibition assays with MeAIB and BCH): mixed AATs, likely but not limited to system A and system L
- Cell uptake ([5]; 10 mM BCH): 1.6±0.1 % ID/5×10^5 cells
- Cell uptake ([5]; 10 mM MeAIB): 3.2±0.4 % ID/5×10^5 cells
- Cell uptake ([5]; Control (no inhibitor)): 3.6±0.3 % ID/5×10^5 cells
- Cell uptake ([6]; 10 mM BCH): 2.2±0.1 % ID/5×10^5 cells
- Cell uptake ([6]; 10 mM MeAIB): 3.5±0.2 % ID/5×10^5 cells
- Cell uptake ([6]; Control (no inhibitor)): 3.4±0.3 % ID/5×10^5 cells
- inhibition of uptake by MeAIB ([6]; MDA MB468 cells, 10 mM MeAIB): no significant MeAIB inhibition
- uptake in blood ([7]; 15 min post injection): 5.1±1.1 %ID/g
- uptake in bone ([7]; 15 min post injection): 2.4±1.1 %ID/g
- uptake in brain ([7]; 15 min post injection): 0.6±0.1 %ID/g
- uptake in heart ([7]; 15 min post injection): 3.2±1.2 %ID/g
- uptake in kidney ([7]; 15 min post injection): 36±5.1 %ID/g
- uptake in liver ([7]; 15 min post injection): 3.4±0.6 %ID/g
- uptake in lung ([7]; 15 min post injection): 6.5±1.5 %ID/g
- uptake in muscle ([7]; 15 min post injection): 4.0±0.8 %ID/g
- uptake in pancreas ([7]; 15 min post injection): 55±8.8 %ID/g
- uptake in spleen ([7]; 15 min post injection): 7.9±2.3 %ID/g
- uptake in tumor ([7]; 15 min post injection): 3.2±2.5 %ID/g
- uptake in blood ([7]; 30 min post injection): 2.9±1.1 %ID/g
- uptake in bone ([7]; 30 min post injection): 2.2±0.5 %ID/g
- uptake in brain ([7]; 30 min post injection): 0.5±0.2 %ID/g
- uptake in heart ([7]; 30 min post injection): 3.2±1.3 %ID/g
- uptake in kidney ([7]; 30 min post injection): 21±6.2 %ID/g
- uptake in liver ([7]; 30 min post injection): 2.9±0.9 %ID/g
- uptake in lung ([7]; 30 min post injection): 5.0±2.6 %ID/g
- uptake in muscle ([7]; 30 min post injection): 2.9±0.2 %ID/g
- uptake in pancreas ([7]; 30 min post injection): 37±13 %ID/g
- uptake in spleen ([7]; 30 min post injection): 6.6±1.1 %ID/g
- uptake in tumor ([7]; 30 min post injection): 1.8±0.4 %ID/g
- uptake in blood ([7]; 60 min post injection): 2.4±0.04 %ID/g
- uptake in bone ([7]; 60 min post injection): 2.1±0.2 %ID/g
- uptake in brain ([7]; 60 min post injection): 0.6±0.1 %ID/g
- uptake in heart ([7]; 60 min post injection): 3.5±0.3 %ID/g
- uptake in kidney ([7]; 60 min post injection): 17±0.6 %ID/g
- uptake in liver ([7]; 60 min post injection): 3.3±0.5 %ID/g
- uptake in lung ([7]; 60 min post injection): 3.4±0.8 %ID/g
- uptake in muscle ([7]; 60 min post injection): 2.5±0.3 %ID/g
- uptake in pancreas ([7]; 60 min post injection): 36±3.1 %ID/g
- uptake in spleen ([7]; 60 min post injection): 9.2±5.1 %ID/g
- uptake in tumor ([7]; 60 min post injection): 3.4±1.7 %ID/g
- uptake in blood ([7]; 120 min post injection): 1.8±0.4 %ID/g
- uptake in bone ([7]; 120 min post injection): 1.6±0.4 %ID/g
- uptake in brain ([7]; 120 min post injection): 0.6±0.1 %ID/g
- uptake in heart ([7]; 120 min post injection): 3.0±0.7 %ID/g
- uptake in kidney ([7]; 120 min post injection): 13±1.7 %ID/g
- uptake in liver ([7]; 120 min post injection): 2.8±0.7 %ID/g
- uptake in lung ([7]; 120 min post injection): 3.3±1.1 %ID/g
- uptake in muscle ([7]; 120 min post injection): 1.7±0.5 %ID/g
- uptake in pancreas ([7]; 120 min post injection): 28±7.4 %ID/g
- uptake in spleen ([7]; 120 min post injection): 5.3±1.8 %ID/g
- uptake in tumor ([7]; 120 min post injection): 3.5±0.7 %ID/g
